What all share (assay): growth of human tumour cells (NCI), 48 h
Experiment [1] relates to 786-0 renal.
Experiment [2] concerns HS 578T breast.
The subject of experiment [3] is LOX IMVI melanoma.
The subject of experiment [4] is MCF7 breast.
In experiment [5] the test system is NCI-H226 lung.
The test system of experiment [6] is NCI-H23 lung.
Experiment [7] has as its system NCI-H522 lung.
Experiment [8] concerns SF-539 CNS.
Experiment [9] deals with SW-620 colon.
The subject of experiment [10] is TK-10 renal.

Values joined by “and” are separate entries in the source; they are usually repeats but may differ in a detail not shown here. Equal entries are not always repeated.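 Dose response: 5 concentrations. Exposure: 48 h. Format: 96-well plates. Endpoint: linear interpolation; highest concentration if not reached. The concentration for 50% growth inhibition is given as GI50. The concentration for full growth arrest is given as TGI.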 Where only a bound is given, the exact number is not on record here.

Regarding `Nc1nc(N)c2c(n1)CCC(S(=O)(=O)c1ccc3ccccc3c1)C2` (stereo not given), the TGI in [1] is above 100 µM; in [2], 77.6 µM; in experiment [3], above 100 µM; in experiment [4], above 100 µM; in [5] it was above 100 µM; in experiment [6] it was above 100 µM. For the same compound, the TGI in experiment [7] was 34.5 µM; in experiment [8] it was above 100 µM; in [9], above 100 µM; in experiment [10], 51.4 µM. The GI50 in [2] is 5.05 µM; in experiment [7], 2.94 µM.

As to `c1ccc(CC(Nc2cccnc2)c2ccccc2)cc1` (stereo not given), the TGI in [1] was 54.4 µM; in experiment [2], 95.2 µM; in [3] it was 31.9 µM; in experiment [4] it was above 100 µM; in [5] it was 51.4 µM; in experiment [6], 82.2 µM. The TGI in experiment [7] is 60.4 µM; in experiment [8] it was 40.5 µM; in experiment [9], above 100 µM; in [10] it was 94.9 µM.

For the compound `COc1c(B(O)O)cccc1-c1nc2c(F)cc3n[nH]c(C)c3c2c2c1CCCC2`, the GI50 in [1] was 0.661 µM; in [2], 0.118 µM; in experiment [3], 0.688 µM; in experiment [4], 1.43 µM; in experiment [5], 0.892 µM; in experiment [6] it was 1.33 µM. The GI50 was 1.11 µM in experiment [7], 0.212 µM in [8], 0.727 µM in experiment [9] and 0.0215 µM in experiment [10]. Besides, the TGI in experiment [1] is 10.5 µM; in experiment [2] it was above 50 µM; in experiment [3], 4.14 µM; in experiment [4] it was above 50 µM; in [5] it was above 14.2 µM; in experiment [6], above 27.8 µM. Besides, the TGI in experiment [7] was 8.81 µM; in [8], 2.97 µM; in [9] it was above 50 µM; in experiment [10], 49.6 µM.

As to `NC1(C(=O)N[C@@H](CCO)c2ccc(Cl)cc2)CCN(c2ncnc3[nH]ccc23)CC1`, the GI50 in experiment [1] is 0.292 µM and 0.354 µM; in [2] it was 0.177 µM and 0.421 µM; in experiment [3], > 2.85 µM and 22.2 µM; in [4] it was 0.632 µM and 1.72 µM; in experiment [5], 2.14 µM and 7.92 µM; in experiment [6], > 3.45 µM and 13.9 µM. Further, the GI50 in experiment [7] was > 2.05 µM and 17.1 µM; in experiment [8], 0.223 µM and 0.417 µM; in experiment [9], > 3.5 µM and 24.8 µM; in experiment [10], 1.04 µM and 2.56 µM. For the same compound, the TGI was above 100 µM in experiment [1]; above 100 µM in experiment [3]; above 100 µM in [4]; above 83.4 µM in experiment [5]; above 100 µM in experiment [6]; above 90.3 µM in experiment [7]. Moreover, the TGI is 2.42 µM and 13.2 µM in [8]; above 100 µM in experiment [9]; above 69.7 µM in experiment [10].

On to `O=C(O)c1ccc(/C=N/N=C2c3ccccc3-c3ccccc32)cc1`, for which the TGI is above 100 µM in experiment [1]; 53.1 µM in experiment [2]; above 100 µM in [3]; above 100 µM in experiment [4]; 45.5 µM in [5]; above 100 µM in experiment [6]. The TGI in experiment [7] was above 100 µM; in experiment [8], 92.3 µM; in [9], above 100 µM; in experiment [10] it was above 100 µM.

Regarding `O=c1/c(=C\c2ccc(Br)cc2)sc2n1C(c1ccc(Br)cc1)C1=C(N=2)c2ccc3ccccc3c2OCC1` (stereo not given), the GI50 in [1], in experiment [2], in [3], in experiment [4], in experiment [5] and in [6] was above 100 µM in each case. In addition, the GI50 in [7], in experiment [8], in [9] and in [10] was above 100 µM in each case. The TGI in experiment [1], in [2], in [3], in [4], in experiment [5] and in experiment [6] was above 100 µM in each case. The TGI in [7], in experiment [8], in [9] and in [10] was above 100 µM in each case.

On to `O=C1OCC2=C1C(c1cccc(Cl)c1)c1cc3c(cc1N2CCO)CCC3` (stereo not given), for which the GI50 in [1] was 0.0485 µM; in experiment [2] it was 0.0453 µM; in [3], 0.0661 µM; in experiment [4], 0.0363 µM; in experiment [5], 0.0527 µM; in [6], 0.0481 µM. Also, the GI50 in experiment [7] was 0.0203 µM; in experiment [8], 0.0361 µM; in experiment [9], 0.0369 µM; in experiment [10] it was 0.0464 µM. The TGI in [1] turned out to be 10.8 µM; in experiment [2], 22.2 µM; in experiment [3] it was 13.8 µM; in [4] it was 12.9 µM; in [5], 0.912 µM; in experiment [6], 14.3 µM. For the same compound, the TGI in experiment [7] stood at 0.0603 µM; in [8] it was 7.53 µM; in experiment [9], 16.4 µM; in experiment [10], 16.3 µM.

Consider `CC#CC#C/C(=C/C=CC(=O)OC)SC`, for which the TGI in experiment [1], in experiment [2], in [3], in experiment [4], in experiment [5] and in [7] was above 100 µM each time. The TGI in experiment [8], in experiment [9] and in [10] was above 100 µM throughout.

Take `CCCCOC(=O)c1c(C)[nH]c(/C=C2\N=C(c3ccc[nH]3)C=C2OC)c1C`: the GI50 in [1] is 0.267 µM; in experiment [2], 0.147 µM; in experiment [3], 0.0296 µM; in [4], 0.162 µM; in [5], 0.31 µM; in experiment [6], 0.254 µM. In addition, the GI50 in experiment [7] was 0.174 µM; in experiment [8], 0.245 µM; in experiment [9] it was 0.0569 µM; in [10], 0.185 µM. The TGI in experiment [1] is 3.09 µM; in [2], 1.19 µM; in experiment [3], 0.102 µM; in experiment [4] it was 2.65 µM; in experiment [5] it was 1.72 µM; in experiment [6], 2.6 µM. For the same compound, the TGI in experiment [7] came to 1.68 µM; in experiment [8], 2 µM; in experiment [9], 1.44 µM; in [10] it was 5.07 µM.

These data come from PubChem BioAssay (NCI).
